From PMC7010785, “Nandrolone induces a stem cell-like phenotype in human hepatocarcinoma-derived cell line inhibiting mitochondrial respiratory activity” (Scientific Reports, 2020)

Target: T1, mitochondrial respiratory chain complex III (CxIII, coenzyme Q-cytochrome c oxidoreductase) (Bos taurus, UniProt P00157+P13272)
T1 construct: gene MT-CYB; native complex in mitochondria isolated from bovine heart
Assay: spectrophotometric initial rates of cytochrome c reduction with graded decylubiquinol in isolated mitochondria; reciprocal and Dixon plots
Type: biochemical
Source text: spectrophotometric initial rates of cytochrome c reduction with graded decylubiquinol in isolated mitochondria; reciprocal and Dixon plots on mitochondrial respiratory chain complex III (CxIII, coenzyme Q-cytochrome c oxidoreductase) | indicate a competitive modality of inhibition.

C[C@]12CC[C@H]3[C@@H](CCC4=CC(=O)CC[C@@H]43)[C@@H]1CC[C@@H]2O [ND, nandrolone]
Ki: ~300 µM
